Experiment [1] has as its target bee venom phospholipase A2 (Apis mellifera, UniProt P00630). In kind it is biochemical.
Another experiment concerns Calcium^2+ channel. Put plainly: Calcium Channel (mobilization) Inhibition Assay (Fura-2 fluorescence). In kind it is cell-based. The text has this: Calcium Channel (mobilization) Inhibition Assay
Polymorphonuclear leukocytes (PMNa), gastric glands, GH3 cells, A431 cells, spleen cells, human keratinocytes corneal cells, etc. were loaded with the Ca^2+ sensitive fluorescent dye, Fura-2. The appropriate cell type was chosen and the potency and efficacy of the anti-inflammatory furanones on calcium mobilization, calcium channel inhibition was quantitated. The methods used for A431 cells listed below are representative of those used for other cells.
A431 cells were detached using a 5-10 min trypsin-EDTA treatment whereas GH3 cells were treated 2 to 5 min with a 1% pancreatin solution. Cells were immediately washed twice in a 20 mM HEPES buffer (pH 7.4) containing 120 mM NaCl, 6 mM KCl, 1 mM MgSO4, 1 mg/ml glucose and 1 mg/ml pyruvate and 1.4 mM calcium (medium A). Approximately 5×10^6 cells were suspended in medium A and incubated with 4 uM fura-2-AM for 15 min at 37° C.
After washing the fura-2 loaded cells, the uptake of dye was checked using fluorescence microscopy and found to be evenly distributed in the cytosol of all cells. Fluorescence was continuously recorded with a Perkin-Elmer LS-5 spectrofluorometer. The excitation wavelength was set at 340 nm and emission wavelength set at 500 nm. The cell suspension was continually stirred, maintained at 37° C. and equilibrated for approximately 5 min before addition of various agents. [Ca^2+ i was calculated using the following formula: [formula]
All fluorescence values were measured relative to a EGTA-quenched signal determined as follows: F was the relative fluorescence measurement of the sample. Fmax was determined by lysing the cells with digitonin (100 ug/ml) in DMSO. After Fmax was determined the pH was adjusted to 8, with NaOH and Ca^2+ chelated with 3 mM EGTA to totally quench the fura-2 signal and obtain Fmin.
When quin-2- was used, cells were incubated with 10 uM quin-2- at 37° C. for 1 hour, washed and then used.

Setting [2] is: read-out: IC50, Calcium^2+ Channel Mobilization Inhibition, KCl induced.
Setting [3] is: read-out: IC50, Calcium^2+ Channel Mobilization Inhibition, TRH induced.

5 compounds from patent publication US5451686A, “3 and 5 alkyl and phenyl 4-(hydroxy or acyloxy)-alkyl substituted 2(5H)-furanones as anti-inflammatory agents” (Allergan, Inc., priority 1994, dated 1995) can be followed below.

Where two headings read alike, the source gives them in different places.

bee venom phospholipase A2, sequence (P00630 34-167 limits assumed): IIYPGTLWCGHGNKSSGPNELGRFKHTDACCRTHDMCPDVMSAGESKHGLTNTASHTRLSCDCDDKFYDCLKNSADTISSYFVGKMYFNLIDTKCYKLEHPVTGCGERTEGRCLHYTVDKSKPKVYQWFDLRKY

With `CCCCCCCCCCCCC(O)C1=CC(=O)OC1C` (single isomer, unassigned) [Compound 3, 4-(1-Hydroxytridecyl)-5-methyl-2(5H)-furanone], the “IC50, Phospholipase A2 Assay” value in experiment [1] is “inactive at 3 μM”. The half-maximal inhibitory concentration (IC50) amounted to 470 nM in the experiment with Calcium^2+ channel (setting [2]) and 670 nM in the experiment with Calcium^2+ channel (setting [3]).

Regarding `CCCCCCCCCCCCC(OC(C)=O)C1=C(C)C(=O)OC1` (centres unmarked) [Compound 2, 4-(1-Acetoxytridecyl)-3-methyl-2-furanone], the “IC50, Phospholipase A2 Assay” value in experiment [1] was “inactive at 3 μM”. Further, the concentration for half-maximal inhibition (IC50) with Calcium^2+ channel (setting [2]) worked out at 250 nM; in the experiment on Calcium^2+ channel (setting [3]) it was 1000 nM.

Take `CCCCCCCCCCCC(=O)OCC1=C(c2ccccc2)C(=O)OC1C` (centres unmarked) [Compound 4, 4-Dodecoyloxymethyl-5-methyl-3-phenyl-2(5H)-furanone]: the “IC50, Phospholipase A2 Assay” value in experiment [1] was “inactive at 3 μM”. The “IC50, Calcium^2+ Channel Mobilization Inhibition, TRH induced” value in the experiment with Calcium^2+ channel (TRH induced) was “inactive”. Besides, the IC50 in the experiment with Calcium^2+ channel (setting [2]) was 8000 nM.

Take `CCCCCCCCCCCCC(OC(C)=O)C1=CC(=O)OC1C` (centres unmarked) [Compound 1, 4-(1-Acetoxytridecyl)-5-methyl-2(5H)-furanone]: the “IC50, Phospholipase A2 Assay” value in experiment [1] is “inactive at 3 μM”. The IC50 came to 360 nM in the experiment with Calcium^2+ channel (setting [2]) and 6400 nM in the experiment with Calcium^2+ channel (setting [3]).

On to `CC1=C(CC/C(C)=C/CCC2=CCC(C3=CC(=O)OC3O)OC2O)C(C)(C)CCC1` (centres unmarked) [manoalide, reference compound], for which the results for the IC50 in the experiment with Calcium^2+ channel (setting [2]) and with Calcium^2+ channel (setting [3]) were 800 nM and 600 nM, respectively.

Usually IC50 stands for the concentration that inhibits the measured activity by half.
